In data set [1] the test system is P. aeruginosa ATCC 27853. In kind it is cell-based, Pseudomonas aeruginosa. An excerpt: (§1) The surviving cells from each antimicrobial concentration with no visible growth were enumerated by plating on tryptic soy agar (TSA). MBC was defined as the lowest concentration of the antimicrobial agent that led to at least a 99.9% reduction in the number of viable bacterial cells relative to the initial inoculum. There were three independent experiments with one replicate in each experiment.

The test system of data set [2] is methicillin-resistant S. aureus ATCC 43300. In kind it is cell-based, Staphylococcus aureus. The following applies: ATCC 43300.
Data set [3] relates to rabbit red blood cells. The experiment in a line: Hemolytic activity. The following applies: for Hemolysis: relative to Triton X-100. In kind it is cell-based. How it is done: Hemolytic activity was evaluated using defibrinated rabbit blood in a 96-well plate as described previously. A nonionic surfactant Triton X-100, which is capable of lysing red blood cells (RBCs), was used at 0.1% as a positive control. Briefly, rabbit blood (Hardy Diagnostics, Santa Maria, Calif.) was diluted with phosphate buffered saline (PBS; pH 7.2) at a 1:19 ratio (v/v) and free hemoglobin was removed by washing RBCs and centrifugation four times at 1,000×g at 4° C. for 5 min. Aliquots (50 μL) of washed RBCs were incubated with 150 μL two-fold dilutions of paenipeptin analogues at final concentrations of 16-128 μg/mL at 37° C. for 30 min in a microtiter plate (NBS, Corning Inc.). After incubation, treated RBCs were gently mixed by repeated pipetting. Aliquots (20 μL) of the cell suspension were mixed with 200 μL PBS in a new 96-well plate and centrifuged at 2,204×g for 10 min. The supernatant was transferred to a new 96-well plate for absorbance measurement at 415 nm using a Cell Imaging Multimode Reader (Cytation 3, BioTek; Winooski, Vt.). The percent hemolysis observed after exposure to each paenipeptin analogue was calculated relative to Triton X-100.

Data set [4] has as its system S. aureus ATCC 29213. In kind it is cell-based, Staphylococcus aureus.
From the text: as §1

Data set [5] deals with Escherichia coli ATCC 25922. The data set is classed as cell-based. The settings on record: ATCC 25922.
Data set [6] relates to Pseudomonas aeruginosa ATCC 27853. In kind it is cell-based. The settings on record: ATCC 27853.
Data set [7] has as its system Staphylococcus aureus ATCC 29213. In kind it is cell-based. The following applies: ATCC 29213.
Description: (§3) The minimum inhibitory concentration (MIC) of paenipeptin analogues was determined using the broth microdilution method (Wirker, M. A. Methods for Dilution Antimicrobial Susceptibility Tests for Bacteria that Grow Aerobically: Approved Standard M07-A8; Clinical and Laboratory Standards Institute, Wayne, Pa., 2009). Seven reference strains (Acinetobacter baumannii ATCC 19606, Escherichia coli ATCC 25922, Klebsiella pneumoniae ATCC 13883, Pseudomonas aeruginosa ATCC 27853, Enterococcus faecium ATCC 19434, Staphylococcus aureus ATCC 29213 and methicillin-resistant S. aureus ATCC 43300) were subjected to MIC testing.
(§4) Paenipeptin analogues were two-fold diluted in tryptic soy broth (TSB; Becton Dickinson) and mixed with an equal volume of bacterial suspensions in TSB containing approximately 1.5×10^5 colony-forming units (CFU)/mL in a clear UV-sterilized 96-well microtiter plate (NBS, Corning Inc., Corning, N.Y.). […] The microtiter plate was incubated at 37° C. for 18-20 h.
For data set [8], the system named is Acinetobacter baumannii ATCC 19606. The data set is classed as cell-based. The settings on record: ATCC 19606.
Data set [9] concerns S. aureus ATCC 43300. In kind it is cell-based, Staphylococcus aureus.
From the text: as §1

Data set [10] concerns Enterococcus faecium ATCC 19434. The data set is classed as cell-based. The settings on record: ATCC 19434.
Description: as §3, §4
In data set [11] the test system is Klebsiella pneumoniae ATCC 13883. The data set is classed as cell-based. The following applies: ATCC 13883.
Description: as §3, §4
Data set [12] shares this test system. The experiment in a line: MIC of antibiotics with or without paenipeptin analogues (potentiation). In kind it is cell-based. The following applies: K. pneumoniae ATCC 13883. An excerpt: (§2) Gram-negative bacteria, including Acinetobacter and Klebsiella, are intrinsically resistant to the hydrophobic antibiotic rifampicin.
Data set [13] relates to Acinetobacter baumannii ATCC 19606. Described as above. The settings on record: A. baumannii ATCC 19606. The data set is classed as cell-based.
From the text: as §2

Data set [14] has as its system Escherichia coli ATCC 25922. The data set is classed as in vitro ADME. How it is done: To determine the stability of peptides in human serum, paenipeptin analogues were added into 100% human serum to a final concentration of 64 μg/ml. The mixtures were incubated at 37° C. and samples were withdrawn at 0, 6, 12 and 24 h. […] The residual antibacterial activity after incubation in human serum was compared to the non-treated control.

The subject of data set [15] is E. coli ATCC 25922. In kind it is cell-based, Escherichia coli. The following applies: ATCC 25922. How it is done:
The impact of human serum on the antibacterial activity of selected paenipeptin analogues was determined using a procedure similar to that used for MIC determination as described above except that the microbiological medium was replaced by human serum (MP Biomedicals, Solon, Ohio). Paenipeptin analogues were two-fold diluted in 100% human serum and mixed with an equal volume of 90% serum containing approximately 1.5×10^5 CFU/mL of E. coli ATCC 25922 or S. aureus ATCC 29213. The final paenipeptin concentrations ranged from 0.5-64 μg/mL in 95% serum. The MIC in the presence of serum was then tested as described above.

By MBC is commonly meant the smallest concentration meeting the test's criterion for killing. The term MIC denotes the lowest concentration found to suppress growth. Low readings indicate greater potency, high ones weaker potency.

Like-named read-outs stand apart in the source and are kept apart here. Where a SMILES comes first, the peptide text is derived from it. [ ]: non-standard residue; d: D form. The star is where a group is joined. ξ: configuration not given here. Thr(3ξ) = CC(O)[C@H](N)C(=O)O; Decanoyl = CCCCCCCCCC(=O)*; Heptanoyl = CCCCCCC(=O)*; Octanoyl = CCCCCCCC(=O)*; Dab = NCC[C@H](N)C(=O)O Where only a bound is given, the exact number is not on record here.

Regarding `CCCCCCC(=O)N[C@@H](CCN)C(=O)N[C@@H](Cc1ccccc1)C(=O)N[C@@H](CCN)C(=O)N[C@H](Cc1ccccc1)C(=O)N[C@@H](CC(C)C)C(=O)N[C@@H](CCN)C(=O)N[C@H](CC(C)C)C(=O)N[C@@H](CC(C)C)C(=O)N[C@@H](CO)C(N)=O` [Analogue 6] (Heptanoyl-[Dab]F[Dab][dF]L[Dab][dL]LS-NH2), the MBC in data set [1] fell in the range of 8 to 16 µg/mL; in [4], 16 to 32 µg/mL. Further, the MIC lay within 16 to 32 µg/mL in data set [2], 1 to 4 µg/mL in data set [5], 2 to 4 µg/mL in data set [6] and 16 to 32 µg/mL in data set [7]. Also, the Hemolysis in [3] (16 μg/mL) came out at 0.14 ± 0.20%; in [3] (32 μg/mL), 0.39 ± 0.30%; in data set [3] (64 μg/mL) it was 2.03 ± 0.44%; in [3] (128 μg/mL) it was 8.34 ± 1.80%. Moreover, the Minimum inhibitory concentration was 1 to 4 µg/mL in data set [5] and 16 to 32 µg/mL in data set [7].
For `CCCCCCC(=O)N[C@@H](CCN)C(=O)N[C@H](C(=O)N[C@@H](CCN)C(=O)N[C@H](Cc1ccccc1)C(=O)N[C@@H](CC(C)C)C(=O)N[C@@H](CCN)C(=O)N[C@H](CC(C)C)C(=O)N[C@@H](CC(C)C)C(=O)N[C@@H](CO)C(N)=O)[C@@H](C)CC` [Analogue 5] (Heptanoyl-[Dab]I[Dab][dF]L[Dab][dL]LS-NH2), the minimal bactericidal concentration (MBC) in data set [1] was in the range of 8 to 16 µg/mL; in [9] it was 16 to 32 µg/mL; in data set [4], 16 to 32 µg/mL. The minimal inhibitory concentration (MIC) in data set [8] fell in the range of 8 to 16 µg/mL; in data set [5], 1 to 4 µg/mL; in data set [10] it was 8 to 16 µg/mL; in [6], 2 to 4 µg/mL; in data set [7], 16 to 32 µg/mL. The Hemolysis is 0.96 ± 0.59% in data set [3] (16 μg/mL), 1.39 ± 0.55% in [3] (32 μg/mL), 4.86 ± 1.05% in data set [3] (64 μg/mL) and 26.5 ± 4.45% in [3] (128 μg/mL). Also, the values for the Minimum inhibitory concentration in data set [5] and in [7] were 1 to 4 µg/mL and 16 to 32 µg/mL, respectively.
As for `CCCCCCCCCC(=O)N[C@@H](CCN)C(=O)N[C@H](C(=O)N[C@H](C(=O)N[C@H](CC(C)C)C(=O)N[C@@H](CC(C)C)C(=O)N[C@@H](CCN)C(=O)N[C@@H](C(=O)N[C@@H](CC(C)C)C(=O)N[C@@H](CO)C(N)=O)C(C)C)C(C)O)[C@@H](C)CC` (stereo partly drawn) [Analogue 13] (Decanoyl-[Dab]I[Thr(3ξ)][dL]L[Dab][dV]LS-NH2), the MIC in data set [2] was over 32 µg/mL; in [8] it was over 32 µg/mL; in data set [11] it was over 32 µg/mL; in data set [5], over 32 µg/mL; in data set [10], at least 32 µg/mL; in data set [6] it was over 32 µg/mL. This compound returned an MIC in data set [7] of over 32 µg/mL. The Hemolysis in data set [3] (16 μg/mL) turned out to be 1.25 ± 0.71%; in [3] (32 μg/mL), 5.06 ± 1.14%; in data set [3] (64 μg/mL), 10.0 ± 1.03%; in [3] (128 μg/mL), 24.9 ± 2.71%. The “MIC of rifampicin at 2 μg/mL of paenipeptin analogue” value in [12] and in data set [13] was over 0.125 μg/ml throughout. Further, the figures for the “MIC of rifampicin at 4 μg/mL of paenipeptin analogue” value in [12] and in [13] were over 2 μg/ml and over 0.125 μg/ml, respectively.
Turning to `CCCCCCCC(=O)N[C@@H](CCN)C(=O)N[C@H](C(=O)N[C@@H](CCN)C(=O)N[C@H](Cc1ccccc1)C(=O)N[C@@H](CC(C)C)C(=O)N[C@@H](CCN)C(=O)N[C@@H](C(=O)N[C@@H](CC(C)C)C(=O)N[C@@H](CCN)C(N)=O)C(C)C)[C@@H](C)CC` [Analogue 9] (Octanoyl-[Dab]I[Dab][dF]L[Dab][dV]L[Dab]-NH2), the MIC in data set [8] was at least 32 µg/mL; in [11], over 32 µg/mL; in [5], 4 to 16 µg/mL; in data set [6], 2 to 4 µg/mL; in data set [7], over 32 µg/mL. The “MIC after incubation in human serum at 37° C.” value fell in the range of 1 to 2 µg/mL in [14] (ATCC 25922, 0 h) and 1 to 2 µg/mL in data set [14] (ATCC 25922, 12 h). Further, the Hemolysis came out at 0.52 ± 0.58% in data set [3] (16 μg/mL), 0.80 ± 0.68% in data set [3] (32 μg/mL), 0.73 ± 0.50% in data set [3] (64 μg/mL) and 2.25 ± 2.18% in data set [3] (128 μg/mL). Moreover, the “hemolytic activity (in words)” value in [3] (128 μg/mL) was “non-hemolytic”. For the same compound, the “MIC of ampicillin in the presence of […] μg/ml paenipeptin analogue” value in data set [12] is recorded as 32 μg/ml; in data set [13] it was 1-2 μg/ml. Moreover, the “MIC of clarithromycin in the presence of […] μg/ml paenipeptin analogue” value in data set [12] turned out to be 0.0156 μg/ml. In addition, the “MIC of erythromycin in the presence of […] μg/ml paenipeptin analogue” value was 0.0625 μg/ml in [12] and 0.125-0.25 μg/ml in [13]. Besides, the “MIC of rifampicin at 4 μg/mL of paenipeptin analogue” value is <0.00098-0.00195 μg/ml in data set [12] and 0.00195 μg/ml in data set [13]. For the same compound, the “MIC of vancomycin in the presence of […] μg/ml paenipeptin analogue” value in data set [12] is recorded as 16 μg/ml; in data set [13], 0.25-0.5 μg/ml. The “Sensitization factor (clarithromycin)” value is 2,048 in data set [12] (4 μg/mL paenipeptin) and 4,096-8,192 in [13] (4 μg/mL paenipeptin). In addition, the “MIC of rifampicin at 2 μg/mL of paenipeptin analogue” value in [13] worked out at 0.0019 μg/ml. In [13] (4 μg/mL paenipeptin), the “Sensitization factor (erythromycin)” value was 128-256. The Minimum inhibitory concentration in data set [5] was 4 to 16 µg/mL; in data set [7] it was over 32 µg/mL; in data set [15] it was 2 to 4 µg/mL.

The values are drawn from patent US11364275B2, “Linear lipopeptide paenipeptins and methods of using the same” (priority 2017, dated 2022).
